Among the data in ChEMBL document CHEMBL4411344, “Synthesis and biological evaluation of new long-chain squaramides as anti-chagasic agents in the BALB/c mouse model” (Bioorg Med Chem, 2019) are Activity values, retold here.

Structures are written as SMILES. Calls of active or inactive are those of the source. No cut-off for these calls is given here.

In series [1] the test system is Trypanosoma cruzi. The series is described as follows: Antitrypanosomal activity against Trypanosoma cruzi MHOM/Pe/2011/Arequipa DTU 5 trypomastigotes infected in Balb/c mouse assessed as reduction in parasitaemia reactivation at 20 mg/kg, po pretreated once daily for 5 consecutive days starting from day 75 post infection followed by cyclophosphamide-induced immunosuppression on day 100 post infection measured within 1 week post immunosuppression by Neubauer chamber method. It is filed as functional. Set-up: scale not given: the % may be the effect or the level left.

For series [2], the system named is Trypanosoma cruzi. The series is described as follows: Antitrypanosomal activity against Trypanosoma cruzi MHOM/Pe/2011/Arequipa DTU 5 trypomastigotes infected in Balb/c mouse assessed as parasite-free adipose tissue at 20 mg/kg, po pretreated once daily for 5 consecutive days starting from day 10 post infection followed by cyclophosphamide-induced immunosuppression on day 100 post infection measured on day 127 post infection by PCR method. Format: functional.

The subject of series [3] is Trypanosoma cruzi. The series can be described thus: Antitrypanosomal activity against Trypanosoma cruzi MHOM/Pe/2011/Arequipa DTU 5 trypomastigotes infected in Balb/c mouse assessed as parasite-free oesophagus at 20 mg/kg, po pretreated once daily for 5 consecutive days starting from day 10 post infection followed by cyclophosphamide-induced immunosuppression on day 100 post infection measured on day 127 post infection by PCR method. It is filed as functional.

Series [4] deals with Trypanosoma cruzi. The series is described as follows: Antitrypanosomal activity against Trypanosoma cruzi MHOM/Pe/2011/Arequipa DTU 5 trypomastigotes infected in Balb/c mouse assessed as parasite-free lungs at 20 mg/kg, po pretreated once daily for 5 consecutive days starting from day 10 post infection followed by cyclophosphamide-induced immunosuppression on day 100 post infection measured on day 127 post infection by PCR method. It is filed as functional.

In series [5] the test system is Trypanosoma cruzi. The series can be described thus: Antitrypanosomal activity against Trypanosoma cruzi MHOM/Pe/2011/Arequipa DTU 5 trypomastigotes infected in Balb/c mouse assessed as parasite-free muscle at 20 mg/kg, po pretreated once daily for 5 consecutive days starting from day 10 post infection followed by cyclophosphamide-induced immunosuppression on day 100 post infection measured on day 127 post infection by PCR method. Format: functional.

For series [6], the system named is Trypanosoma cruzi. The series can be described thus: Antitrypanosomal activity against Trypanosoma cruzi MHOM/Pe/2011/Arequipa DTU 5 trypomastigotes infected in Balb/c mouse assessed as parasite-free stomach at 20 mg/kg, po pretreated once daily for 5 consecutive days starting from day 10 post infection followed by cyclophosphamide-induced immunosuppression on day 100 post infection measured on day 127 post infection by PCR method. It is filed as functional.

Series [7] deals with Trypanosoma cruzi. The series can be described thus: Antitrypanosomal activity against Trypanosoma cruzi MHOM/Pe/2011/Arequipa DTU 5 trypomastigotes infected in Balb/c mouse assessed as parasite-free adipose tissue at 20 mg/kg, po pretreated once daily for 5 consecutive days starting from day 75 post infection followed by cyclophosphamide-induced immunosuppression on day 100 post infection measured on day 127 post infection by PCR method. It is filed as functional.

Series [8] deals with Trypanosoma cruzi. The series is described as follows: Antitrypanosomal activity against Trypanosoma cruzi MHOM/Pe/2011/Arequipa DTU 5 trypomastigotes infected in Balb/c mouse assessed as parasite-free oesophagus at 20 mg/kg, po pretreated once daily for 5 consecutive days starting from day 75 post infection followed by cyclophosphamide-induced immunosuppression on day 100 post infection measured on day 127 post infection by PCR method. It is filed as functional.

Series [9] relates to Trypanosoma cruzi. The series is described as follows: Antitrypanosomal activity against Trypanosoma cruzi MHOM/Pe/2011/Arequipa DTU 5 trypomastigotes infected in Balb/c mouse assessed as parasite-free heart at 20 mg/kg, po pretreated once daily for 5 consecutive days starting from day 75 post infection followed by cyclophosphamide-induced immunosuppression on day 100 post infection measured on day 127 post infection by PCR method. Format: functional.

In series [10] the test system is Trypanosoma cruzi. The series is described as follows: Antitrypanosomal activity against Trypanosoma cruzi MHOM/Pe/2011/Arequipa DTU 5 trypomastigotes infected in Balb/c mouse assessed as parasite-free lungs at 20 mg/kg, po pretreated once daily for 5 consecutive days starting from day 75 post infection followed by cyclophosphamide-induced immunosuppression on day 100 post infection measured on day 127 post infection by PCR method. Format: functional.

For series [11], the system named is Trypanosoma cruzi. The series can be described thus: Antitrypanosomal activity against Trypanosoma cruzi MHOM/Pe/2011/Arequipa DTU 5 trypomastigotes infected in Balb/c mouse assessed as reduction in Ig-G level in serum at 20 mg/kg, po once daily for 5 consecutive days starting from day 75 post infection measured on day 81 post infection by ELISA. It is filed as functional, organism-based. A general note: In an ELISA, binding on a coated surface is turned into a signal by an enzyme label.

For series [12], the system named is Trypanosoma cruzi. The series can be described thus: Antitrypanosomal activity against Trypanosoma cruzi MHOM/Pe/2011/Arequipa DTU 5 trypomastigotes infected in Balb/c mouse assessed as reduction in Ig-G level in serum at 20 mg/kg, po pretreated once daily for 5 consecutive days starting from day 75 post infection followed by cyclophosphamide-induced immunosuppression on day 100 post infection measured on day 127 post infection by ELISA. Format: functional, organism-based.

For series [13], the system named is Trypanosoma cruzi. The series can be described thus: Antitrypanosomal activity against Trypanosoma cruzi MHOM/Pe/2011/Arequipa DTU 5 trypomastigotes infected in Balb/c mouse assessed as reduction in splenomegaly at 20 mg/kg, po once daily for 5 consecutive days starting from day 10 post infection measured on day 127 post infection relative to control. Format: functional.

Series [14] concerns Trypanosoma cruzi. The series is described as follows: Antitrypanosomal activity against Trypanosoma cruzi MHOM/Pe/2011/Arequipa DTU 5 trypomastigotes infected in Balb/c mouse assessed as reduction in splenomegaly at 20 mg/kg, po once daily for 5 consecutive days starting from day 75 post infection measured on day 127 post infection relative to control. Format: functional.
The nature of series [15]: Toxicity in Balb/c mouse assessed as death at 20 mg/kg, po once daily for 5 consecutive days starting from day 10 post infection. It is filed as organism-based. Particulars: in vivo.
A short description of series [16]: Toxicity in Balb/c mouse assessed as death at 20 mg/kg, po once daily for 5 consecutive days starting from day 75 post infection. Format: organism-based. The note with it: in vivo.
A short description of series [17]: Nephrotoxicity in Balb/c mouse infected with Trypanosoma cruzi MHOM/Pe/2011/Arequipa DTU 5 trypomastigotes assessed as decrease in serum urea level at 20 mg/kg, po once daily for 5 consecutive days starting from day 10 post infection measured on day 127 post infection relative to control. It is filed as toxicity, organism-based. The note with it: in vivo.
A short description of series [18]: Nephrotoxicity in Balb/c mouse infected with Trypanosoma cruzi MHOM/Pe/2011/Arequipa DTU 5 trypomastigotes assessed as decrease in serum urea level at 20 mg/kg, po once daily for 5 consecutive days starting from day 75 post infection measured on day 81 post infection relative to control. It is filed as toxicity, organism-based. The note with it: in vivo.
The nature of series [19]: Nephrotoxicity in Balb/c mouse infected with Trypanosoma cruzi MHOM/Pe/2011/Arequipa DTU 5 trypomastigotes assessed as decrease in serum urea level at 20 mg/kg, po once daily for 5 consecutive days starting from day 75 post infection measured on day 127 post infection relative to control. Format: toxicity, organism-based. The note with it: in vivo.
The nature of series [20]: Nephrotoxicity in Balb/c mouse infected with Trypanosoma cruzi MHOM/Pe/2011/Arequipa DTU 5 trypomastigotes assessed as decrease in serum uric acid level at 20 mg/kg, po once daily for 5 consecutive days starting from day 10 post infection measured on day 16 post infection relative to control. Format: toxicity, organism-based. The arrangement: scale not given: the % may be the effect or the level left. The note with it: in vivo.

Series [21] in a line: Hepatotoxicity in Balb/c mouse infected with Trypanosoma cruzi MHOM/Pe/2011/Arequipa DTU 5 trypomastigotes assessed as increase in ratio of serum AST to GOT level at 20 mg/kg, po once daily for 5 consecutive days starting from day 75 post infection measured on day 81 post infection relative to control. Format: toxicity, organism-based. Particulars: in vivo.
A short description of series [22]: Hepatotoxicity in Balb/c mouse infected with Trypanosoma cruzi MHOM/Pe/2011/Arequipa DTU 5 trypomastigotes assessed as increase in total bilirubin level at 20 mg/kg, po once daily for 5 consecutive days starting from day 75 post infection measured on day 81 post infection relative to control. Format: toxicity, organism-based. Particulars: in vivo.

With `O=C(Cn1ccnc1[N+](=O)[O-])NCc1ccccc1` [BENZNIDAZOLE], the Activity in series [1] is given as 51%; in series [2] it was 33%; in series [3], 33%; in series [4] it was 33%; in [5] it was 33%; in series [6], 33%. For the same compound, the Activity is on record as 55% in [7]; 55% in series [8]; 55% in [9]; 55% in series [10]; “Non-Toxic” in series [15]; “Non-Toxic” in series [16]. Further, the Activity in series [17] is 20 to 30 mg/dL; in [18], 20 to 30 mg/dL; in series [19], 20 to 30 mg/dL; in series [20], over 40%; in [21] it was 20 to 30 U/L; in series [22], 30%. The result in [11] was inactive. Further, the result in [12], in series [13] and in [14] was Active.
On to `CCCCCCCCCCCCCCCCNc1c(N(C)CCCN(C)C)c(=O)c1=O`, for which the Activity in series [1] worked out at 21%; in series [2] it was 67%; in series [3], 67%; in [4] it was 67%; in series [5], 67%; in series [6] it was 67%. The Activity in series [7] is 78%; in [8] it was 78%; in series [9], 78%; in series [10] it was 78%; in series [13], 66%; in series [14] it was 55%. In addition, the Activity entry in [15] was “Non-Toxic”; in series [16], “Non-Toxic”; in series [17], 10 to 20 mg/dL; in series [18] it was 10 to 20 mg/dL; in series [19], 10 to 20 mg/dL; in [20], over 40%. Besides, the Activity in series [21] is 10 to 20 U/L; in series [22], 20%. In addition, in series [11], the outcome was inactive. Also, in series [12], the result was Active.
On to `CCCCCCNc1c(N(C)CCCN(C)C)c(=O)c1=O`, for which the result in series [1], in series [2], in [3], in [4], in series [5] and in [6] was inactive. Also, the outcome in series [7], in series [8], in series [9], in series [10], in series [11] and in series [12] was inactive. Also, the outcome in [13] and in series [14] was Active. For the same compound, the Activity result in series [15] is “Non-Toxic”; in [16] it was “Non-Toxic”; in series [17], 10 to 20 mg/dL; in [18] it was 10 to 20 mg/dL; in series [19], 10 to 20 mg/dL; in series [20], over 40%. The Activity in series [21] is 10 to 20 U/L; in series [22], 10%.
